Data reported in US6596702B2, “Compositions for use in rehydration and nutrition during athletic exercise and methods of making same” (Elan Drug Delivery Limited, priority 1994, dated 2003).

Experiments:
[1] = Osmolarity of aqueous trehalose solution (Roebling Micro-Osmometer); format: physicochemical
Experimental: 5.0 to 11.34 g of trehalose dihydrate is dry blended at an rpm greater than 18,000 until the consistency of is a uniform powder. Thereafter, the trehalose dihydrate is dissolved in distilled deionized water to a final volume of 100 mL and an osmolarity of 300 mOsm or less. For 11.34 g of trehalose the measured value was 287 mOsm. Measurement of the osmolarity of the final mixture is made on a Roebling Micro-Osmometer.

[2] = Blood glucose levels with trehalose as carbohydrate source in a sports beverage; format: in vivo; conditions: trehalose as primary carbohydrate source in sports beverages
[3] = Tolerability of trehalose; format: in vivo; conditions: humans

Which results are given for OC[C@H]1O[C@H](O[C@H]2O[C@H](CO)[C@@H](O)[C@H](O)[C@H]2O)[C@H](O)[C@@H](O)[C@@H]1O [trehalose, α-D-glucopyranosyl-α-D-glucopyranoside]?
osmolarity ([1]; 1 molar solution of trehalose): 1665 mOsm; osmolarity, measured value ([1]; 11.34 g trehalose dihydrate dissolved in distilled deionized water to a final volume of 100 mL): 287 mOsm; osmolarity ([1]; 11.34 g trehalose dihydrate in distilled deionized water, final volume 100 mL, stated isotonic value): 300 mOsm; blood glucose levels over that of glucose alone [2]: two-fold; tolerability [3]: well tolerated
